These results are taken from doi:10.1101/2025.03.31.646301v1, “Discovery of Tankyrase scaffolding inhibitor specifically targeting the ARC4 peptide binding domain” (biorxiv, 2025).

For test [1], the target named is T1, TNKS2 ARC4 (Homo sapiens, UniProt Q9H2K2).
T1 construct: ankyrin repeat cluster 4 domain; FRET: 6xHis-mCerulean (CFP) fusion; DSF, NMR, crystal: MBP and His tag cleaved by TEV, residues 487-649 printed for crystal; E. coli BL21(DE3)
T1 sequence (Q9H2K2 487-649): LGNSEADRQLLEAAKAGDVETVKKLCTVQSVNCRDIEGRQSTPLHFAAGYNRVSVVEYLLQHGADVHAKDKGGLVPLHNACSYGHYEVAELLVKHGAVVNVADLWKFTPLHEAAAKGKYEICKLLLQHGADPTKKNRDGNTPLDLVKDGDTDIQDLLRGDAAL
Set-up: DSF thermal shift of TNKS2 ARC4, stabilization over DMSO control. The following applies: binder. From the text: Given the notable stabilization of the pyrrolone-based compounds from the Commercials Diversity collection, we decided to focus on their common scaffold for compound optimization. Pyrrolone is indeed a versatile moiety that is largely employed for the design of compounds with a variety of biological effects.[55] The nine primary hits were acquired from commercial suppliers, they underwent quality control, additional DSF validation and determination of potency through FRET-based IC50 measurements (Table 1). All the tested compounds include a benzodioxane moiety (R[1]), a [compound left out] group with substitutions in the para position (R[2]), and an R[3] group with an aliphatic character and a tertiary amine. […] In addition, all molecules, except for 7, have IC50 values below 100 µM. Among the nine molecules, 1 performed the best in terms of stabilization of TNKS2 ARC4 and potency. […] In the same position, the presence of a hydrophobic methyl group (3, 4), other halogen substituents (5) and alkoxy groups (6–9) is also tolerated, even if not optimal. […] A SAR investigation was conducted with purchased and synthesized analogues of 1 through FRET-based potency measurements and DSF assay with TNKS2 ARC4 (Table 2, Table S2). All the compounds commercially acquired underwent quality control. […] Changes to the length of the aliphatic chain at R[3] greatly impacts both potency and protein stabilization. […] The diethylamino-based substituent at R[3] […] Compounds 25 and 26 further indicate that the presence of tertiary amine at R[3] is not necessary to achieve binding. […] 5 Figure S2. DSF assay results for validation of primary hits identified in the EU-OPENSCREEN Commercials Diversity Library. (A) and (B) show DSF assay validation measurements of TNKS2 ARC4 with primary hits from the Commercial Diversity Library. Compounds are tested at 100 μM. They are named after their EU-OPENSCREEN identity codes and the identities are available for consultation on ECBD. 1,2 (A) and (B) show results from two independent experiments. For each experiment, each compound was tested with a single measurement, while controls (TNKS2 ARC4 with 100 μM optimized peptide, TNKS2 ARC4 with 100 μM DMSO) are studied in at least four replicates and errors are shown. Moreover, stabilization over the control (TNKS2 ARC4 with DMSO) is indicated (ΔTm °C). […] It was not possible to measure the melting curve of TNKS2 ARC4 in presence of EOS21552, EOS54043, EOS54043.

In test [2] the target is T1, TNKS2 ARC4. The experiment in a line: biochemical. On the set-up: FRET competition: inhibition of CFP-ARC domain binding to YFP-REAGDGEE peptide. The method, then:
The FRET assay for discovery of chemical probes targeting ARC and SAM domains of tankyrases was developed in a previous study.[52] The high-throughput screening of the EU-OPENSCREEN Pilot and Commercials Diversity libraries was performed at the Norwegian Centre for Molecular Biosciences and Medicine (NCMBM, formerly NCMM). For the primary screen, assay-ready plates containing library compound sufficient to reach a screening concentration of 30 µM were prepared on black shallow-well 384-microwell plates (Greiner bio-one small volume, high base, non-binding microplate black, 784900 or Fisherbrand™ 384-Well ShallowWell Polypropylene Microplates, 12-566-617, Fisher Scientific) using 30 nL of 10 mM DMSO compound stocks dispensed with an Echo 550 [compound left out] handler (Labcyte). Each screening plate also contained DMSO controls at equivalent volumes to compounds for positive, negative, and assay buffer blank controls, 16 wells per control type. Stock solutions of CFP-TNKS2 ARC4 and YFP-REAGDGEE or CFP-SAM(E897K) and YFP-SAM(Y920A) were combined and diluted in assay buffer (10 mM BTP pH 7, 3% weight/volume PEG 20000, 0.01% volume/volume Triton, 0.5 mM TCEP) to final concentrations of 100 nM and 200 nM or 150 and 300 nM, respectively. The positive control was prepared by addition of guanidine hydrochloride to the above assay buffer to a final concentration of 1M. A volume of 10 µL of these solutions was added to each well of the assay-ready plates using a BioTek MultiFlo FX dispenser (Agilent) equipped with 5 uL dispensing cassettes for the peristaltic pumps (screening solution and control) and a syringe pump (assay buffer blank). After [compound left out] handling, plates were incubated at RT for 30 minutes before reading fluorescence using a BioTek Synergy Neo2 plate reader (Agilent) with Gen5 software (version 3.02) at four wavelength combinations – 410/477, 410/527, 430/477, 430/527 – each with an excitation bandwidth of 20 nm and an emission bandwidth of 10 nm; a gain setting of 135; a “Normal” read speed with 10 msec delay after plate movement, 50 measurements per data point, low lamp energy, and a “Standard” dynamic range (0 to 99,999); and a read height of 4.5 mm. A SAR investigation was conducted with purchased and synthesized analogues of 1 through FRET-based potency measurements and DSF assay with TNKS2 ARC4 (Table 2, Table S2). All the compounds commercially acquired underwent quality control. […] Changes to the length of the aliphatic chain at R[3] greatly impacts both potency and protein stabilization. […] The diethylamino-based substituent at R[3] […] Compounds 25 and 26 further indicate that the presence of tertiary amine at R[3] is not necessary to achieve binding.

Where two headings read alike, the source gives them in different places.

In general, IC50 refers to the concentration that gives 50% inhibition. As to `O=C(C1=C(O)C(=O)N(CCCN2CCNCC2)C1c1cccc(O)c1)c1ccc2c(c1)OCCO2` (centres unmarked) [S2], on TNKS2 ARC4 [1], the “ΔTm ± SD (°C)” value amounted to 0.80 ± 0.16 °C. Moreover, the IC50 at TNKS2 ARC4 [2] worked out at 302 µM.

On to `N=C(N)NCCCN1C(=O)C(O)=C(C(=O)c2ccc3c(c2)OCCO3)C1c1ccccc1` (centres unmarked) [S3], for which the “ΔTm ± SD (°C)” value on TNKS2 ARC4 [1] worked out at 1.20 ± 0.19 °C. Besides, the concentration for half-maximal inhibition (IC50) on TNKS2 ARC4 [2] is 133 µM.

With `N=C(N)NCCCN1C(=O)C(O)=C(C(=O)c2ccc3c(c2)OCCO3)C1c1cccc(O)c1` (centres unmarked) [S5], the “ΔTm ± SD (°C)” value on TNKS2 ARC4 [1] amounted to 1.31 ± 0.17 °C. Further, the IC50 at TNKS2 ARC4 [2] stood at 121 µM.

For `CN(C)CCCN1C(=O)C(O)=C(C(=O)c2ccc3c(c2)oc(=O)n3C)C1c1ccccc1` (centres unmarked) [compound 27, 27], the “ΔTm ± SD (°C)” value on TNKS2 ARC4 [1] was -0.03 ± 0.11 °C. For the same compound, the half-maximal inhibitory concentration (IC50) on TNKS2 ARC4 [2] (inhibitor) is > 1000 µM.

As to `Cc1ccccc1COc1ccc(C(=O)C2=C(O)C(=O)N(CCCN(C)C)C2c2cccc(O)c2)cc1` (centres unmarked) [compound 28, 28], the “ΔTm ± SD (°C)” value on TNKS2 ARC4 [1] is -0.20 ± 0.22 °C. For the same compound, the IC50 at TNKS2 ARC4 [2] (inhibitor) is > 1000 µM.

Regarding `COc1ccc(C(=O)C2=C(O)C(=O)N(CCCN3CCOCC3)C2c2ccccc2)cc1OC` (centres unmarked) [compound 29, 29], the “ΔTm ± SD (°C)” value on TNKS2 ARC4 [1] is 0.14 ± 0.25 °C. On TNKS2 ARC4 [2], the IC50 is > 1000 µM.

In the case of `COc1ccc(C(=O)C2=C(O)C(=O)N(CCCN3CCOCC3)C2c2ccc(C)cc2)cc1OC` (centres unmarked) [compound 30, 30], the “ΔTm ± SD (°C)” value on TNKS2 ARC4 [1] was 0.12 ± 0.25 °C. Moreover, on TNKS2 ARC4 [2], the IC50 was > 1000 µM.

As to `CCN(CC)CCCN1C(=O)C(O)=C(C(=O)c2ccc(OC)cc2)C1c1ccccc1` (centres unmarked) [compound 31, 31], the “ΔTm ± SD (°C)” value on TNKS2 ARC4 [1] is 1.46 ± 0.52 °C. Besides, the IC50 at TNKS2 ARC4 [2] turned out to be 136 µM.

Take `COc1cccc(C(=O)C2=C(O)C(=O)N(CCCN3CCOCC3)C2c2ccccc2)c1` (centres unmarked) [compound 32, 32]: at TNKS2 ARC4 [1], the “ΔTm ± SD (°C)” value was determined as 0.23 ± 0.25 °C. At TNKS2 ARC4 [2], the IC50 was > 1000 µM.

For `COc1cccc(C(=O)C2=C(O)C(=O)N(CCCN3CCOCC3)C2c2ccc(C)cc2)c1` (centres unmarked) [compound 33, 33], the “ΔTm ± SD (°C)” value on TNKS2 ARC4 [1] came to 0.36 ± 0.33 °C. Also, the IC50 at TNKS2 ARC4 [2] is > 1000 µM.

On to `Cc1cc(C(=O)C2=C(O)C(=O)N(CCCN(C)C)C2c2ccc(O)cc2)ccc1OC(C)C` (centres unmarked) [compound 34, 34], for which the “ΔTm ± SD (°C)” value at TNKS2 ARC4 [1] is -0.08 ± 0.41 °C. For the same compound, the IC50 at TNKS2 ARC4 [2] is > 1000 µM.

As to `COCCN1C(=O)C(O)=C(C(=O)c2ccc3c(c2)OCCO3)C1c1cccc(O)c1` (centres unmarked) [compound 35, 35], at TNKS2 ARC4 [1], the “ΔTm ± SD (°C)” value was 0.82 ± 0.38 °C. Further, the half-maximal inhibitory concentration (IC50) on TNKS2 ARC4 [2] came out at 305 µM.

For `O=C(C1=C(O)C(=O)N(Cc2ccccc2)C1c1cccc(O)c1)c1ccc2c(c1)OCCO2` (centres unmarked) [compound 36, 36], the “ΔTm ± SD (°C)” value on TNKS2 ARC4 [1] is 0.45 ± 0.25 °C. The IC50 on TNKS2 ARC4 [2] turned out to be 23 µM.

For `Cc1ccc(C2C(C(=O)c3ccc4c(c3)OCCO4)=C(O)C(=O)N2Cc2ccccc2)cc1` (centres unmarked) [compound 37, 37], on TNKS2 ARC4 [1], the “ΔTm ± SD (°C)” value turned out to be 0.51 ± 0.31 °C. Also, the IC50 at TNKS2 ARC4 [2] was 71 µM.

`Cc1ccc(C2C(C(=O)c3ccc4c(c3)OCCO4)=C(O)C(=O)N2CCN(C)C)cc1` (centres unmarked) [compound 38, 38]: the “ΔTm ± SD (°C)” value at TNKS2 ARC4 [1] was 0.67 ± 0.28 °C. Moreover, the IC50 on TNKS2 ARC4 [2] (inhibitor) is 493 µM.

In the case of `CCN(CC)CCN1C(=O)C(O)=C(C(=O)c2ccc3c(c2)OCCO3)C1c1ccccc1` (centres unmarked) [compound 39, 39], the “ΔTm ± SD (°C)” value at TNKS2 ARC4 [1] is 1.05 ± 0.36 °C. Besides, the IC50 on TNKS2 ARC4 [2] (inhibitor) stood at 255 µM.

For `COCCCN1C(=O)C(O)=C(C(=O)c2ccc3c(c2)OCCO3)C1c1ccccc1` (centres unmarked) [compound 40, 40], the “ΔTm ± SD (°C)” value at TNKS2 ARC4 [1] came to 0.47 ± 0.31 °C. Besides, the IC50 at TNKS2 ARC4 [2] (inhibitor) turned out to be 360 µM.

In the case of `O=C(C1=C(O)C(=O)N(CCc2ccccc2)C1c1ccccc1)c1ccc2c(c1)OCCO2` (centres unmarked) [compound 41, 41], the “ΔTm ± SD (°C)” value at TNKS2 ARC4 [1] was determined as 0.91 ± 0.31 °C. Further, the IC50 on TNKS2 ARC4 [2] (inhibitor) was determined as 65 µM.

With `O=C(C1=C(O)C(=O)N(CCCN2CCOCC2)C1c1ccccc1)c1ccc2c(c1)OCCO2` (centres unmarked) [compound 42, 42], the “ΔTm ± SD (°C)” value on TNKS2 ARC4 [1] was found to be 2.26 ± 0.34 °C. For the same compound, at TNKS2 ARC4 [2], the IC50 was 101 µM.

Consider `O=C(C1=C(O)C(=O)N(CCCN2CCOCC2)C1c1ccc(F)cc1)c1ccc2c(c1)OCCO2` (centres unmarked) [compound 43, 43], for which the “ΔTm ± SD (°C)” value at TNKS2 ARC4 [1] worked out at 1.61 ± 0.37 °C. The IC50 at TNKS2 ARC4 [2] came to 114 µM.

Turning to `O=C(C1=C(O)C(=O)N(Cc2ccncc2)C1c1ccncc1)c1ccc2c(c1)OCCO2` (centres unmarked) [compound 44, 44], at TNKS2 ARC4 [1], the “ΔTm ± SD (°C)” value was found to be 0.21 ± 0.26 °C. For the same compound, on TNKS2 ARC4 [2], the IC50 was > 1000 µM.

For `COc1cc(C2C(C(=O)c3ccc4c(c3)OCCO4)=C(O)C(=O)N2CCCN2CCOCC2)ccc1O` (centres unmarked) [compound 45, 45], the “ΔTm ± SD (°C)” value at TNKS2 ARC4 [1] stood at 2.32 ± 0.33 °C. For the same compound, the IC50 on TNKS2 ARC4 [2] (inhibitor) came out at 78 µM.
